Literature values in patent publication US20250339398A1, “TREATMENT OF SLEEP DISTRUBANCES IN AUTISM SPECTRUM DISORDER PATIENTS” (Vanda Pharmaceuticals Inc., priority 2021, published 2025).

Key:
[1] = previous clinical studies in healthy volunteers, primary insomnia, Non-24, pediatric SMS
MT2 receptor = target: T1, MT2 receptor (Homo sapiens, UniProt P49286); settings: MT2 receptor versus MT1 receptor
T1 sequence (P49286 1-362): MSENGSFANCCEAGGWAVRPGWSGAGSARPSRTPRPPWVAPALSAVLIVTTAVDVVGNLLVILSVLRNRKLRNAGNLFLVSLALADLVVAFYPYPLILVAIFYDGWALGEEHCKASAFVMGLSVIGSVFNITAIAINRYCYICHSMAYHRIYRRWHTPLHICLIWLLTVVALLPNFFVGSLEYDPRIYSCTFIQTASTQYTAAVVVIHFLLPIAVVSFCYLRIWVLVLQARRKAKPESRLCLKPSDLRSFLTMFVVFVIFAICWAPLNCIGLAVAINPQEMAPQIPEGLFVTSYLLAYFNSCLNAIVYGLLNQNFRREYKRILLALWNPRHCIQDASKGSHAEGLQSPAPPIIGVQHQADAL

linearity of pharmacokinetics (doses ranging from 3 mg to 300 mg): linear | absolute bioavailability (in vivo): 38%
SMILES: CCC(=O)NC[C@@H]1C[C@H]1c1cccc2c1CCO2 [Tasimelteon, tasimelteon]
safety and tolerability [1]: safe and well-tolerated | affinity for the MT2 receptor relative to the MT1 receptor (MT2 receptor): greater affinity for the MT2 receptor than the MT1 receptor
